In patent US20100298141A1, “SUBSTITUTED PYRIDINE N-OXIDE HERBICIDES” (E. I. DU PONT DE NEMOURS AND COMPANY, priority 2007, published 2010):

Assays:
[1] = test system: bermudagrass; assay: Test F preemergence test; format: in vivo, Cynodon dactylon; conditions: scale 0 to 100
In short: (§1)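 Test chemicals in a non-phytotoxic solvent mixture containing a surfactant were applied preemergence to sown seeds or postemergence to sugarcane plants. Treated plants and controls were held in a greenhouse for 14 to 21 days, then visually evaluated against controls.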

[2] = test system: common ragweed; assay: Test C pre-/postemergence test; format: in vivo, Ambrosia elation
In short: (§2)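 Seeds were planted and treated preemergence with test chemical in a non-phytotoxic solvent mixture containing surfactant. Postemergence applications of the same formulation went onto plants 2 to 18 cm tall (1- to 4-leaf stage). A dash marks no test result.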

[3] = test system: Virginia dayflower; assay: Test F preemergence test; format: in vivo, Commelina virginica; conditions: scale 0 to 100
From the text: Seeds of plant species selected from bermudagrass (Cynodon dactylon), Surinam grass (Brachiaria decumbens), large crabgrass (Digitaria sanguinalis), green foxtail (Setaria viridis), goosegrass (Eleusine indica), johnsongrass (Sorghum halepense), kochia (Kochia scoparia), pitted morningglory (Ipomoea lacunosa), purple nutsedge (Cyperus rotundus), common ragweed (Ambrosia elation), mustard (Brassica nigra), guineagrass (Panicum maximum), […] (Paspalum dilatatum), barnyardgrass (Echinochloa crus-galli), southern sandbur (Cenchrus echinatus), common sowthistle (Sonchus oleraceous), prickly […] spinosa), Italian ryegrass (Lolium multiflorum), common purslane (Portulaca oleracea), broadleaf signalgrass (Brachiaria platyphylla), common groundsel (Senecio vulgaris), common chickweed (Stellaria media), Virginia dayflower (Commelina virginica), annual bluegrass (Poa annua), naked crabgrass (Digitaria nuda), […] cochinchinensis), quackgrass (Elytrigia repens), Canada horseweed (Conyza canadensis), field bindweed (Convolvulus arvensis), […] (Bidens bipinnata), common mallow (Malva sylvestris), Russian thistle (Salsola kali), and sugarcane (Saccharum officinarum) were planted and treated preemergence with test chemicals formulated in a non-phytotoxic solvent mixture which included a surfactant. At a different time, sugarcane was treated with postemergence applications of some of the test chemicals formulated in the same manner. Plants were approximately 3- to 4-leaf stage for the postemergence treatments. Treated plants and controls were maintained in a greenhouse for 14 to 21 days, after which time all species were compared to controls and visually evaluated. […] A dash (-) response means no test result.

[4] = test system: green foxtail; assay: Test C pre-/postemergence test; format: in vivo, Setaria viridis
In short: as §2

[5] = test system: corn; assay: Test A pre-/postemergence greenhouse test; format: in vivo, Zea mays; conditions: for Corn plant response rating: 0 to 100 scale; for Plant response rating, Corn: 0 to 100 scale where 0 is no effect and 100 is complete control
In short: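 Two application timings were run side by side in the greenhouse. Before emergence, compound went onto the soil surface of loam–sand pots as a directed spray; after emergence, plants at 2–10 cm and the one- to two-leaf stage were treated. Visual injury versus controls was rated at approximately day ten.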

[6] = test system: broadleaf signalgrass; assay: Test F preemergence test; format: in vivo, Brachiaria platyphylla; conditions: scale 0 to 100
In short: as §1

[7] = test system: Surinam grass; assay: Test F preemergence test; format: in vivo, Brachiaria decumbens; conditions: scale 0 to 100
In short: as §1

[8] = test system: mustard; assay: Test F preemergence test; format: in vivo, Brassica nigra; conditions: scale 0 to 100
In short: as §1

[9] = test system: prickly sida; assay: Test F preemergence test; format: in vivo, Sida spinosa; conditions: scale 0 to 100
In short: as §1

[10] = test system: quackgrass; assay: Test F preemergence test; format: in vivo, Elytrigia repens; conditions: scale 0 to 100
In short: as §1

[11] = test system: kochia; assay: Test F preemergence test; format: in vivo, Kochia scoparia; conditions: scale 0 to 100
In short: as §1

[12] = test system: common mallow; assay: Test F preemergence test; format: in vivo, Malva sylvestris; conditions: scale 0 to 100
In short: as §1

[13] = test system: blackgrass; assay: Test C pre-/postemergence test; format: in vivo, Alopecurus myosuroides
In short: as §2

[14] = test system: dallisgrass; assay: Test F preemergence test; format: in vivo, Paspalum dilatatum; conditions: scale 0 to 100
In short: as §1

[15] = 31 g ai/ha, Preemergence, scale 0 to 100
[16] = 62 g ai/ha, preemergence, scale 0 (no effect) to 100 (complete control)
[17] = Postemergence, 125 g ai/ha, scale 0 to 100, 0 no effect, 100 complete control
[18] = Postemergence, 250 g ai/ha, scale 0 to 100, 0 no effect, 100 complete control
[19] = preemergence, 125 g ai/ha, scale 0 (no effect) to 100 (complete control)
[20] = Postemergence, 62 g ai/ha, scale 0 to 100, 0 no effect, 100 complete control
[21] = Postemergence, 125 g ai/ha, 0 is no effect, 100 is complete control
[22] = Postemergence, 500 g ai/ha, 0 is no effect, 100 is complete control
[23] = Preemergence, 125 g ai/ha, 0 no effect, 100 complete control
[24] = 62 g ai/ha, Preemergence, scale 0 to 100
[25] = Preemergence, 31 g ai/ha, scale 0 to 100 (0 no effect, 100 complete control)

Cn1nc(C(F)(F)F)c(C[S+]([O-])c2cccc[n+]2[O-])c1OC(F)F (centres unmarked) [Compound 3]
90: Dayflower plant response rating ([3]; 62 g ai/ha, Preemergence) | Plant response rating, Dayflower ([3]; Preemergence, 31 g ai/ha) | Plant response rating, Corn ([5]; Preemergence, 500 g ai/ha)
65: Plant response rating, Bermudagrass ([1]; Preemergence, 31 g ai/ha) | Plant response rating, Kochia ([11]; Preemergence, 31 g ai/ha)
100: Ragweed plant response rating [2, 15] | Ragweed plant response rating [2, 16] | Plant response rating (0 to 100), Ragweed ([2]; Preemergence, 250 g ai/ha) | Ragweed plant response rating [2, 19] | Plant response rating (0 to 100), Foxtail, Green ([4]; Preemergence, 250 g ai/ha) | Black Mustard plant response rating ([8]; 62 g ai/ha, Preemergence) | Prickly Sida plant response rating ([9]; 62 g ai/ha, Preemergence) | Kochia plant response rating ([11]; 62 g ai/ha, Preemergence) | Plant response rating (0 to 100), Blackgrass ([13]; Preemergence, 250 g ai/ha) | Blackgrass plant response rating [13, 19]
50: Plant response rating, Ragweed [2, 17] | Plant response rating, Ragweed [2, 18]
75: Foxtail, Green plant response rating [4, 15] | Signalgrass plant response rating ([6]; 62 g ai/ha, Preemergence) | Plant response rating, Signalgrass ([6]; Preemergence, 31 g ai/ha) | Quackgrass plant response rating ([10]; 62 g ai/ha, Preemergence) | Mallow plant response rating ([12]; 62 g ai/ha, Preemergence) | Plant response rating, Dallisgrass ([14]; Preemergence, 31 g ai/ha)
80: Corn plant response rating [5, 22] | Plant response rating, Prickly Sida ([9]; Preemergence, 31 g ai/ha)
5: Plant response rating (0 to 100), Ragweed ([2]; Postemergence, 31 g ai/ha) | Plant response rating (0 to 100), Ragweed ([2]; Postemergence, 62 g ai/ha)
20: Plant response rating, Kochia ([11]; 8 g ai/ha, preemergence) | Plant response rating, Blackgrass [13, 18]
55: Plant response rating, Foxtail, Green [4, 18]
95: Surinam Grass plant response rating ([7]; 62 g ai/ha, Preemergence) | Plant response rating, Black Mustard ([8]; Preemergence, 31 g ai/ha)
15: Plant response rating, Quackgrass ([10]; Preemergence, 16 g ai/ha)
85: Bermudagrass plant response rating ([1]; 62 g ai/ha, Preemergence) | Foxtail, Green plant response rating [4, 16] | Plant response rating, Surinam Grass ([7]; Preemergence, 31 g ai/ha)
70: Plant response rating, Quackgrass ([10]; Preemergence, 31 g ai/ha) | Blackgrass plant response rating [13, 15] | Blackgrass plant response rating [13, 16]
10: Plant response rating, Foxtail, Green [4, 17]
98: Foxtail, Green plant response rating [4, 19] | Dallisgrass plant response rating ([14]; 62 g ai/ha, Preemergence)
30: Corn plant response rating [5, 23] | Plant response rating, Kochia ([11]; Preemergence, 16 g ai/ha)
0: Plant response rating, Bermudagrass ([1]; 8 g ai/ha, preemergence) | Plant response rating, Bermudagrass ([1]; Preemergence, 16 g ai/ha) | Plant response rating, Dayflower ([3]; 8 g ai/ha, preemergence) | Plant response rating, Dayflower ([3]; Preemergence, 16 g ai/ha) | Plant response rating (0 to 100), Foxtail, Green ([4]; Postemergence, 31 g ai/ha) | Plant response rating, Foxtail, Green [4, 20] | Plant response rating, Signalgrass ([6]; 8 g ai/ha, preemergence) | Plant response rating, Signalgrass ([6]; 16 g ai/ha, preemergence) | Plant response rating, Surinam Grass ([7]; 8 g ai/ha, preemergence) | Plant response rating, Surinam Grass ([7]; 16 g ai/ha, preemergence) | Plant response rating, Prickly Sida ([9]; 8 g ai/ha, preemergence) | Plant response rating, Prickly Sida ([9]; Preemergence, 16 g ai/ha) | Plant response rating, Quackgrass ([10]; 8 g ai/ha, preemergence) | Plant response rating, Mallow ([12]; 8 g ai/ha, preemergence) | Plant response rating, Mallow ([12]; Preemergence, 16 g ai/ha) | Plant response rating, Mallow ([12]; Preemergence, 31 g ai/ha) | Plant response rating (0 to 100), Blackgrass ([13]; Postemergence, 31 g ai/ha) | Plant response rating, Blackgrass [13, 20] | Plant response rating, Blackgrass [13, 17] | Plant response rating, Dallisgrass ([14]; 8 g ai/ha, preemergence) | Plant response rating, Dallisgrass ([14]; Preemergence, 16 g ai/ha)
60: Corn plant response rating [5, 21] | Plant response rating, Black Mustard ([8]; Preemergence, 16 g ai/ha)
35: Plant response rating, Black Mustard ([8]; 8 g ai/ha, preemergence)

Cn1nc(C(F)(F)F)c(C[S+]([O-])c2cccc[n+]2[O-])c1OCC(F)(F)F (racemic) [Compound 28]
75: Plant response rating, Signalgrass ([6]; Preemergence, 31 g ai/ha)
30: Plant response rating, Bermudagrass ([1]; Preemergence, 31 g ai/ha)
80: Bermudagrass plant response rating ([1]; 62 g ai/ha, Preemergence) | Plant response rating, Corn ([5]; Preemergence, 500 g ai/ha) | Plant response rating, Black Mustard ([8]; Preemergence, 16 g ai/ha)
60: Corn plant response rating [5, 21]
50: Plant response rating, Quackgrass ([10]; Preemergence, 31 g ai/ha) | Plant response rating, Kochia ([11]; Preemergence, 31 g ai/ha)
100: Bermudagrass plant response rating ([1]; 125 g ai/ha, preemergence) | Dayflower plant response rating ([3]; 62 g ai/ha, Preemergence) | Dayflower plant response rating ([3]; 125 g ai/ha, preemergence) | Plant response rating, Dayflower ([3]; Preemergence, 31 g ai/ha) | Foxtail, Green plant response rating [4, 24] | Plant response rating, Foxtail, Green [4, 25] | Plant response rating (0 to 100), Foxtail, Green ([4]; Preemergence, 250 g ai/ha) | Signalgrass plant response rating ([6]; 125 g ai/ha, preemergence) | Surinam Grass plant response rating ([7]; 62 g ai/ha, Preemergence) | Surinam Grass plant response rating ([7]; 125 g ai/ha, preemergence) | Black Mustard plant response rating ([8]; 62 g ai/ha, Preemergence) | Black Mustard plant response rating ([8]; 125 g ai/ha, preemergence) | Plant response rating, Black Mustard ([8]; Preemergence, 31 g ai/ha) | Prickly Sida plant response rating ([9]; 62 g ai/ha, Preemergence) | Prickly Sida plant response rating ([9]; 125 g ai/ha, preemergence) | Kochia plant response rating ([11]; 62 g ai/ha, Preemergence) | Kochia plant response rating ([11]; 125 g ai/ha, preemergence) | Mallow plant response rating ([12]; 62 g ai/ha, Preemergence) | Mallow plant response rating ([12]; 125 g ai/ha, preemergence) | Plant response rating, Mallow ([12]; Preemergence, 31 g ai/ha) | Blackgrass plant response rating [13, 24] | Plant response rating, Blackgrass [13, 25] | Plant response rating (0 to 100), Blackgrass ([13]; Preemergence, 250 g ai/ha) | Blackgrass plant response rating [13, 19] | Dallisgrass plant response rating ([14]; 62 g ai/ha, Preemergence) | Dallisgrass plant response rating ([14]; 125 g ai/ha, preemergence)
65: Plant response rating, Ragweed [2, 25]
95: Quackgrass plant response rating ([10]; 125 g ai/ha, preemergence)
15: Plant response rating, Prickly Sida ([9]; Preemergence, 16 g ai/ha)
40: Plant response rating, Dallisgrass ([14]; Preemergence, 31 g ai/ha)
20: Plant response rating, Dayflower ([3]; Preemergence, 16 g ai/ha)
0: Plant response rating, Bermudagrass ([1]; Preemergence, 16 g ai/ha) | Corn plant response rating [5, 23] | Plant response rating, Quackgrass ([10]; Preemergence, 16 g ai/ha) | Plant response rating, Kochia ([11]; Preemergence, 16 g ai/ha) | Plant response rating, Mallow ([12]; Preemergence, 16 g ai/ha) | Plant response rating, Dallisgrass ([14]; Preemergence, 16 g ai/ha)
70: Corn plant response rating [5, 22]
85: Ragweed plant response rating [2, 24]
90: Signalgrass plant response rating ([6]; 62 g ai/ha, Preemergence) | Plant response rating, Surinam Grass ([7]; Preemergence, 31 g ai/ha) | Plant response rating, Prickly Sida ([9]; Preemergence, 31 g ai/ha) | Quackgrass plant response rating ([10]; 62 g ai/ha, Preemergence)
